Data from publication PMC5017749, “Preclinical Metabolism, Pharmacokinetics and In Vivo Analysis of New Blood-Brain-Barrier Penetrant Fingolimod Analogues: FTY720-C2 and FTY720-Mitoxy” (PLoS ONE, 2016).
Like-named read-outs stand apart in the source and are kept apart here.

Columns and labels:
[1] = Plasma and brain pharmacokinetics after single oral or intravenous dosing of mice; type: in vivo; conditions: for Tmax / half-life: male; for oral bioavailability: single oral dose; for half-life: iv
Description: (§1) The objectives of this study were to evaluate the pharmacokinetic profiles of FTY720-C2 and FTY720-Mitoxy following single oral and intravenous (IV) dosing of male mice and to determine blood and tissue levels of both compounds at various postdose time points. Male C57BL/6 mice were 8.4 weeks of age and weighed 20.6–24.8 g on the day of dose administration. Each animal was identified by a unique number via an ear tag with a matching cage tag. Mice were administered (two mice per time point) a single equivalent molar dose of either FTY720-C2 (1 mg/kg) or FTY720-Mitoxy (2 mg/kg) by oral or intravenous administration. As the molecular weight of FTY720-Mitoxy (704.72 g/mol) is ~ two times greater than that of FTY720-C2 (349.51 g/mol), the dose level of FTY720-Mitoxy was double that of FTY720-C2. Details of the design showing group assignments, dose groups, dose levels, as well as blood collection and necropsy time points are shown in Table 2. At the appropriate time points after dosing and blood sample collection for bioanalysis, animals were euthanized by CO2 inhalation until unresponsive, followed by decapitation. Brains were rapidly harvested, rinsed with ice cold saline, blotted dry and bisected along the mid-line. The left and right hemispheres of the brain were weighed separately. Each was placed in separate tubes, immediately flash frozen in liquid nitrogen and stored at -70°C prior to evaluation. All samples were labeled with the test facility study number, animal identification number, dose group, date, collection interval, and tissue identity (left or right brain hemisphere). Adrenal glands from each mouse were also collected and flash frozen.
FTY720-C2 and FTY720-Mitoxy concentrations in plasma and brain were determined by LC-MS/MS. Samples were first prepared by liquid-liquid extraction. To 50 μL of plasma or brain homogenate were added 50 μL of 0.1 M NaOH and 50 μL of internal standard solution (C17 sphingosine) in ethanol. Analytes were then extracted into 1 mL of methyl tert-butyl ether:dichloromethane mixture (75:25, v/v) by vortexing for 1 hr and centrifuged. Supernatants were evaporated to dryness under nitrogen. Residues were reconstituted in 150 μL of 50% methanol in water and spin filtered before applied onto XBridge C18 column (3.5-μm particle; Waters, Milford, MA) with a SecurityGuard C18 guard column (4.0 × 2.0 mm; Phenomenex Inc.). Separations were accomplished with a gradient of 0.1% acetic acid in water (v/v) versus 0.1% acetic acid in acetonitrile:methanol (75:25, v/v) at a rate of 0.5 mL/min. The eluents were further applied into an equipped API 4000 QTrap mass spectrometer (AB Sciex, Foster City, CA) with electrospray ionization (ESI) interface by two coupled LC-10 AT pumps, and monitored in multiple reaction monitoring (MRM) mode with precursor to product ion pairs for C17 sphingosine, FTY720-C2, and FTY720-Mitoxy as following: m/z 286.3 to 268.2, m/z 350.3 to 255.2, and m/z 624.4 to 289.2, respectively.
Pharmacokinetic analysis was conducted using WinNonlin Version 6.2 (Pharsight, Mountain View CA), operating as a validated software system. Non-compartmental analysis was conducted using a bolus intravenous administration model for IV dosing and an extravascular administration model for oral dosing. The peak plasma concentration, time to achieve peak plasma concentration, half-life, mean residence time, and area under the plasma or brain concentration-time curve (Cmax, Tmax, T1/2, and AUC) were calculated from mean animal plasma and brain concentrations. Nominal blood collection times were used for pharmacokinetic calculations.

PP2A = assay: Protein phosphatase (PP2A) assay in adrenal glands of treated mice; type: in vivo, male C57BL/6 mice; conditions: for increase of PP2A activity in mouse adrenal gland: as compared to untreated controls, route not given; for increase of PP2A activity in adrenal gland: up to 48 hr postdose, vs untreated control mice
Description: as §1
Adrenal glands from treated mice were homogenized in buffer containing 20 mM imidazole-HCl, 2 mM EDTA, 2 mM EGTA, plus protease inhibitors, at 4°C. The homogenates were centrifuged to remove particulates followed by free phosphate removal on MicrospinTM-G-25 columns (GE Healthcare). Aliquots of supernatants were incubated in 4-Nitrophenyl-phosphate (pNPP) buffer consisting of 50 mM Tris-HCl, pH 7.0, 0.1 mM CaCl2 with threonine-phosphopeptide (KRpTIRR) substrate. The reactions were run for 10 min at 30°C and stopped by placing samples on ice. Phosphate levels were determined by measuring absorbance at 650 nm using a Multiskan Spectrum plate reader (Thermo Scientific, Pittsburgh, PA) and were compared to freshly prepared standards as previously described, but using a malachite green solution prepared according to Fathi et al.. Samples from two mice per time point (n = 2) were assayed in triplicate to confirm technical fidelity.

[2] = Metabolic stability (intrinsic clearance) in human liver microsomes; type: in vitro ADME; conditions: for percent of the remaining compound: after 60 minute incubation; for microsomal CLint at 1 μM: pH 7.4, 0.1 mg/mL protein, mean of two determinations
Description: Liver microsomal incubations contained 0.1mg/mL microsomal proteins and 1 μM of FTY720-C2 or FTY720-Mitoxy in 100 mM potassium phosphate buffer (pH 7.4) ± an NADPH regenerating system (3.5 mM glucose 6-phosphate, 1.3 mM NADP^+, and 0.4 units/mL glucose-6-phosphate dehydrogenase). Following incubations, reactions were terminated for analysis after 0, 10, 20, 30, and 60 min by the addition of acetonitrile containing C17 sphingosine (300 ng/mL) as the internal standard. Samples were vigorously mixed and centrifuged at 3,400 rpm for 10 min to pellet precipitated proteins. An aliquot of each supernatant was used for LC/MS analysis, for determination of the remaining FTY720-C2 and FTY720-Mitoxy. Similar incubations were performed using a cocktail solution containing 0.2 μM midazolam and 1 μM diclofenac to determine the metabolic activity of the microsomes as an additional control.
Samples resulting from liver microsomal incubations were analyzed by LC-MS/MS. Aliquots of the supernatants were injected onto an X-Bridge C18 column (2.1 × 50 mm, 3.5-μm particles) (Waters, Milford, MA), preceded by a SecurityGuard C18 guard column (4.0 × 2.0 mm; Phenomenex Inc.). Separations were accomplished with a gradient of 0.1% acetic acid in water (v/v) versus 0.1% acetic acid in acetonitrile: methanol (75:25, v/v) at a rate of 0.8 mL/min. The eluents were further applied into an equipped API 4000 QTrap mass spectrometer (AB Sciex, Foster City, CA) with electrospray ionization (ESI) interface by two coupled LC-10 AT pumps. Peak area ratios of FTY720-C2 or FTY720-Mitoxy against the C17 sphingosine internal standard were used to determine the amount of parent remaining compared to that at 0 min. The percent of FTY720-C2 or FTY720-Mitoxy remaining was calculated by dividing the peak area ratio obtained at each time point by that obtained at 0 min. The in vitro intrinsic clearance (CLint) was calculated by linear regression of the log percent of compound remaining versus time plots using Microsoft Excel, two independent experiments (n = 2) were performed for each compound and species. Then, the mean and standard deviation (SD), of two values for each condition, were calculated using Microsoft Excel with the “AVERAGE” and “STDEV” functions, respectively.

[3] = IV administration, sampling 5 min, 8, 24, 48 hr
[4] = oral administration, 1 mg/kg, first sampling time point

| Structure (SMILES) | detected in plasma and brain up to (postdose) [1, 3] | time to penetrate the blood-brain-barrier after delivery ([1]; IV dosing) | partitioning to brain ([1]; mice) | oral bioavailability ([1]; mice) | increase of PP2A activity in mouse adrenal gland (PP2A) | intrinsic clearance interpreted in words [2] | percent of the remaining compound [2] | microsomal CLint at 1 μM [2] | also measured |
| --- | --- | --- | --- | --- | --- | --- | --- | --- | --- |
| CCCCCCCCc1ccc(CCC(CO)(CO)NC(C)=O)cc1 [FTY720-C2, N-(1-hydroxy-2-(hydroxymethyl)-4-(4-octylphenyl)butan-2-yl)acetamide] | 8 h | ≤ 5 min | preferentially partition to brain | orally bioavailable | ~ 2 fold | moderate | 33.5 ± 4.5% | 18.3 ± 2.4 µL/min/mg | brain concentrations compared with plasma at 8 hr postdose ([1]; after both IV and oral dosing, 8 hr postdose): much higher; Tmax ([1]; C57BL/6, mouse, brain, IV dosing, FTY720-C2 1 mg/kg or FTY720-Mitoxy 2 mg/kg, first sampling time point, read-out: Tmax / time of highest concentration in brain (converted)): 5 min; Tmax ([1]; C57BL/6, mouse, plasma, IV dosing, FTY720-C2 1 mg/kg or FTY720-Mitoxy 2 mg/kg, first sampling time point, read-out: Tmax / time of highest concentration in plasma (converted)): 5 min; time of highest concentration in brain [1, 4]: 1 h; time of highest concentration in plasma [1, 4]: 1 h; detected in plasma and brain up to (postdose) ([1]; oral administration, sampling 1, 8, 24, 48 hr): 8 h; increase of PP2A activity in adrenal gland (PP2A; single IV dose (FTY720-C2 1 mg/kg, FTY720-Mitoxy 2 mg/kg)): 2 fold |
| CCCCCCCCc1ccc(CCC(CO)(CO)NC(=O)CC[P+](c2ccccc2)(c2ccccc2)c2ccccc2)cc1 [FTY720-Mitoxy, N-(1-hydroxy-2-(hydroxymethyl)-4-(4-octylphenyl)butan-2-yl)-3’-triphenylphosphoniumpropanamide] | 48 h | ≤ 5 min | preferentially partition to brain | not orally bioavailable | ~ 2 fold | moderate | 35.5 ± 2.3% | 17.5 ± 1.7 µL/min/mg | Tmax / time of highest concentration in brain ([1]; IV dosing, FTY720-C2 1 mg/kg or FTY720-Mitoxy 2 mg/kg, first sampling time point): 5 min; half-life ([1]; mouse, in vivo, 2 mg/kg, IV dosing, 2 mg/kg, read-out: brain elimination half-life (converted)): 106 min; half-life ([1]; mouse, in vivo, 2 mg/kg, IV dosing, 2 mg/kg, read-out: plasma elimination half-life (converted)): 56.4 min; half-life ([1]; mouse, in vivo, 2 mg/kg, mice, IV, plasma and brain, read-out: half-lives): < 120 min; Tmax ([1]; mouse, in vivo, IV dosing, FTY720-C2 1 mg/kg or FTY720-Mitoxy 2 mg/kg, first sampling time point, read-out: Tmax / time of highest concentration in plasma (converted)): 5 min; detection in plasma or brain following oral dosing ([1]; oral, 2 mg/kg): not detected; increase of PP2A activity in adrenal gland (PP2A; single oral dose (FTY720-C2 1 mg/kg, FTY720-Mitoxy 2 mg/kg)): no stimulating effect |
